Consider five compounds from PubChem BioAssay AID1963845 (Molecular Pharmacology Branch, DTP, NCI, 2024).
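Note: luminescence signal used as surrogate measure of viable cells; spheroids exposed to compounds for seven days before readout; 100% = DMSO vehicle control viability as luminescence relative to vehicle.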

For the first test, the system named is 429239-143-T-J1-PDC complex spheroid viability. In words: Anticancer human tumor 429239-143-T-J1-PDC patient-derived small cell lung carcinoma cell line growth inhibition [POLQ]. The following applies: second compound 0.0316 µM; first compound 3.16 µM; stronger effect = lower value. Summed up: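 PDC + HUVEC + MSC complex spheroids; POLQ inhibitors ± partner drugs; top conc. at/near clinical Cmax, else 10 microM (SN-38 1 microM), half-log dilutions; 37 degrees C, 5% CO2.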
For `CCc1cc2c(N3CCc4c(cc(Cn5ccnc5)cc4-c4cn(C)nc4C(F)(F)F)C3=O)cc(C)nc2c(OC)n1` + Cc1cccc(N(C)C(=O)C2C(O)CCN2c2nc(C)cc(C(F)(F)F)c2C#N)c1, the viability, T/C is 72.7%.
For `CCc1cc2c(N3CCc4c(cc(Cn5ccnc5)cc4-c4cn(C)nc4C(F)(F)F)C3=O)ccnc2c(OC)n1` + Cc1cccc(N(C)C(=O)C2C(O)CCN2c2nc(C)cc(C(F)(F)F)c2C#N)c1, the viability, T/C is 85.3%.
`COc1ccc([C@@H](O)c2cc(-c3ncnc4cc(N5CCOCC5)ccc34)c(F)cc2Cl)nn1` + Cc1cccc(N(C)C(=O)C2C(O)CCN2c2nc(C)cc(C(F)(F)F)c2C#N)c1: the viability, T/C was 53.5%.

The same test, now with this note: second compound 0.0316 µM; first compound 10 µM; stronger effect = lower value.
`C=CC(=O)N1CCN(c2nc(=O)n(-c3c(C)ccnc3C(C)C)c3nc(-c4c(O)cccc4F)c(F)cc23)C(C)C1` (stereo unspecified) + Cc1cccc(N(C)C(=O)C2C(O)CCN2c2nc(C)cc(C(F)(F)F)c2C#N)c1: the viability, T/C was 98.7%.
On to `CC(C)n1c(=O)n(C)c2cnc3cc(F)c(-c4ccc(OCCCN5CCCCC5)nc4)cc3c21` + Cc1cccc(N(C)C(=O)C2C(O)CCN2c2nc(C)cc(C(F)(F)F)c2C#N)c1, for which the viability, T/C was 72.5%.
As for `CCc1cc2c(N3CCc4c(cc(Cn5ccnc5)cc4-c4cn(C)nc4C(F)(F)F)C3=O)cc(C)nc2c(OC)n1` + Cc1cccc(N(C)C(=O)C2C(O)CCN2c2nc(C)cc(C(F)(F)F)c2C#N)c1, the viability, T/C was 48.5%.
As to `CCc1cc2c(N3CCc4c(cc(Cn5ccnc5)cc4-c4cn(C)nc4C(F)(F)F)C3=O)ccnc2c(OC)n1` + Cc1cccc(N(C)C(=O)C2C(O)CCN2c2nc(C)cc(C(F)(F)F)c2C#N)c1, the viability, T/C is 49.8%.
Consider `COc1ccc([C@@H](O)c2cc(-c3ncnc4cc(N5CCOCC5)ccc34)c(F)cc2Cl)nn1` + Cc1cccc(N(C)C(=O)C2C(O)CCN2c2nc(C)cc(C(F)(F)F)c2C#N)c1, for which the viability, T/C was 10.8%.

Staying with this test, now noted: second compound 0.1 µM; first compound 0.0316 µM; stronger effect = lower value.
Regarding `C=CC(=O)N1CCN(c2nc(=O)n(-c3c(C)ccnc3C(C)C)c3nc(-c4c(O)cccc4F)c(F)cc23)C(C)C1` (stereo unspecified) + Cc1cccc(N(C)C(=O)C2C(O)CCN2c2nc(C)cc(C(F)(F)F)c2C#N)c1, the viability, T/C was 93.2%.
For the compound `CC(C)n1c(=O)n(C)c2cnc3cc(F)c(-c4ccc(OCCCN5CCCCC5)nc4)cc3c21` + Cc1cccc(N(C)C(=O)C2C(O)CCN2c2nc(C)cc(C(F)(F)F)c2C#N)c1, the viability, T/C was 90.5%.
As to `CCc1cc2c(N3CCc4c(cc(Cn5ccnc5)cc4-c4cn(C)nc4C(F)(F)F)C3=O)cc(C)nc2c(OC)n1` + Cc1cccc(N(C)C(=O)C2C(O)CCN2c2nc(C)cc(C(F)(F)F)c2C#N)c1, the viability, T/C is 104%.
`CCc1cc2c(N3CCc4c(cc(Cn5ccnc5)cc4-c4cn(C)nc4C(F)(F)F)C3=O)ccnc2c(OC)n1` + Cc1cccc(N(C)C(=O)C2C(O)CCN2c2nc(C)cc(C(F)(F)F)c2C#N)c1: the viability, T/C is 103%.
As for `COc1ccc([C@@H](O)c2cc(-c3ncnc4cc(N5CCOCC5)ccc34)c(F)cc2Cl)nn1` + Cc1cccc(N(C)C(=O)C2C(O)CCN2c2nc(C)cc(C(F)(F)F)c2C#N)c1, the viability, T/C is 101%.

The test is the same for the next values; noted with them: second compound 0.1 µM; first compound 0.1 µM; stronger effect = lower value.
As for `C=CC(=O)N1CCN(c2nc(=O)n(-c3c(C)ccnc3C(C)C)c3nc(-c4c(O)cccc4F)c(F)cc23)C(C)C1` (stereo unspecified) + Cc1cccc(N(C)C(=O)C2C(O)CCN2c2nc(C)cc(C(F)(F)F)c2C#N)c1, the viability, T/C was 96.8%.
On to `CC(C)n1c(=O)n(C)c2cnc3cc(F)c(-c4ccc(OCCCN5CCCCC5)nc4)cc3c21` + Cc1cccc(N(C)C(=O)C2C(O)CCN2c2nc(C)cc(C(F)(F)F)c2C#N)c1, for which the viability, T/C is 90.3%.
As to `CCc1cc2c(N3CCc4c(cc(Cn5ccnc5)cc4-c4cn(C)nc4C(F)(F)F)C3=O)cc(C)nc2c(OC)n1` + Cc1cccc(N(C)C(=O)C2C(O)CCN2c2nc(C)cc(C(F)(F)F)c2C#N)c1, the viability, T/C was 104%.
On to `CCc1cc2c(N3CCc4c(cc(Cn5ccnc5)cc4-c4cn(C)nc4C(F)(F)F)C3=O)ccnc2c(OC)n1` + Cc1cccc(N(C)C(=O)C2C(O)CCN2c2nc(C)cc(C(F)(F)F)c2C#N)c1, for which the viability, T/C is 113%.
Turning to `COc1ccc([C@@H](O)c2cc(-c3ncnc4cc(N5CCOCC5)ccc34)c(F)cc2Cl)nn1` + Cc1cccc(N(C)C(=O)C2C(O)CCN2c2nc(C)cc(C(F)(F)F)c2C#N)c1, the viability, T/C was 107%.

Staying with this test, now noted: second compound 0.1 µM; first compound 0.316 µM; stronger effect = lower value.
On to `C=CC(=O)N1CCN(c2nc(=O)n(-c3c(C)ccnc3C(C)C)c3nc(-c4c(O)cccc4F)c(F)cc23)C(C)C1` (stereo unspecified) + Cc1cccc(N(C)C(=O)C2C(O)CCN2c2nc(C)cc(C(F)(F)F)c2C#N)c1, for which the viability, T/C is 108%.
Still for that read-out and setting: the value for `CC(C)n1c(=O)n(C)c2cnc3cc(F)c(-c4ccc(OCCCN5CCCCC5)nc4)cc3c21` + Cc1cccc(N(C)C(=O)C2C(O)CCN2c2nc(C)cc(C(F)(F)F)c2C#N)c1 was 91.7%; that for `CCc1cc2c(N3CCc4c(cc(Cn5ccnc5)cc4-c4cn(C)nc4C(F)(F)F)C3=O)cc(C)nc2c(OC)n1` + Cc1cccc(N(C)C(=O)C2C(O)CCN2c2nc(C)cc(C(F)(F)F)c2C#N)c1 was 87.6%.
`CCc1cc2c(N3CCc4c(cc(Cn5ccnc5)cc4-c4cn(C)nc4C(F)(F)F)C3=O)ccnc2c(OC)n1` + Cc1cccc(N(C)C(=O)C2C(O)CCN2c2nc(C)cc(C(F)(F)F)c2C#N)c1: the viability, T/C is 93.2%.
Consider `COc1ccc([C@@H](O)c2cc(-c3ncnc4cc(N5CCOCC5)ccc34)c(F)cc2Cl)nn1` + Cc1cccc(N(C)C(=O)C2C(O)CCN2c2nc(C)cc(C(F)(F)F)c2C#N)c1, for which the viability, T/C was 106%.

Still in this test, the particulars now being: second compound 0.1 µM; first compound 1 µM; stronger effect = lower value.
On to `C=CC(=O)N1CCN(c2nc(=O)n(-c3c(C)ccnc3C(C)C)c3nc(-c4c(O)cccc4F)c(F)cc23)C(C)C1` (stereo unspecified) + Cc1cccc(N(C)C(=O)C2C(O)CCN2c2nc(C)cc(C(F)(F)F)c2C#N)c1, for which the viability, T/C was 89.8%.
For the compound `CC(C)n1c(=O)n(C)c2cnc3cc(F)c(-c4ccc(OCCCN5CCCCC5)nc4)cc3c21` + Cc1cccc(N(C)C(=O)C2C(O)CCN2c2nc(C)cc(C(F)(F)F)c2C#N)c1, the viability, T/C is 86.5%.
On to `CCc1cc2c(N3CCc4c(cc(Cn5ccnc5)cc4-c4cn(C)nc4C(F)(F)F)C3=O)cc(C)nc2c(OC)n1` + Cc1cccc(N(C)C(=O)C2C(O)CCN2c2nc(C)cc(C(F)(F)F)c2C#N)c1, for which the viability, T/C was 79%.

As usually defined, the viability, T/C is the result in the treated group divided by that in the control group, in per cent.
